# Experimental data reported in patent US20260062412A1, “NITROGEN-CONTAINING HETEROCYCLIC COMPOUND HAVING MYT1 INHIBITORY ACTIVITY” (CHUGAI SEIYAKU KABUSHIKI KAISHA, priority 2023, published 2026).
# Legend:
# [1] = molecular target: T1, MYT1 protein (Homo sapiens (Human), UniProt Q99640); test: Test for binding to ATP binding site of MYT1 (Kinase Tracer 178 / Eu-Anti-GST antibody TR-FRET); conditions: ATP binding site of MYT1, 30 minutes at room temperature
# [2] = test system: LU65; test: Cytotoxicity test with pemetrexed upon addition of each example compound (CellTiter-Glo); assay type: cell-based, human; conditions: combination with pemetrexed, LU65 cells, 7 days; maximum value, at the MYT1 inhibitor and pemetrexed concentrations
# Procedure: LU65 (received from human tissue bank (JCRB Cell Bank)) was used in the evaluation of the present invention. LU65 is a lung cancer cell line having a truncated deletion mutation of S82* in RB1 gene (see Nature. 2019 May; 569(7757): 503-508. (Non Patent Literature 22)), in which the function of RB1 is decreased. The cell culture was carried out using RPMI-1640 (manufactured by SIGMA) containing 10% FBS (manufactured by SIGMA).
# Each pemetrexed (manufactured by Tokyo Kasei Kogyo Co., Ltd.) and each example compound of each concentration were diluted using a DMSO solution, and 0.04 μL of each of series of dilution and DMSO was added to each well of cell culture plate using Echo 555 Liquid Handler (manufactured by Beckman Coulter Inc.). 1000 LU65 cells ([…]) were added to each well, which was cultured at 37° C. in a 5% CO2 incubator for 7 days. Intracellular ATP level which is a cell survival marker was measured and used in the monitoring of cell number. After culturing, 20 μL of CellTiter-Glo (registered trademark) 2.0 (manufactured by Promega) was added to each well, and the emission intensity was measured using Multimode Plate Reader En Vision (registered trademark) Xcite (manufactured by PerkinElmer). The cell survival rate under each condition was calculated by setting the value obtained by subtracting the luminescence of the cell unseeded well from the luminescence of the DMSO-added well as 100%, and calculating the proportion of a value obtained by subtracting the luminescence of the cell unseeded well from the luminescence detected at each well.
# In addition, the cytotoxic activity under each condition was calculated by subtracting the survival rate in a combination of pemetrexed of each treatment concentration and each example compound of each treatment concentration, from 100%.
# [3] = molecular target: T1, MYT1 protein; test: MYT1 kinase activity inhibition test (ELISA, phosphorylation of Y15 of CDK1); assay type: biochemical; conditions: phosphorylation level of Y15 of CDK1 protein caused by MYT1 protein, 60 minutes
# Procedure: The MYT1 kinase activity inhibitory capacity of each compound was evaluated by evaluating the phosphorylation level of Y15 of CDK1 protein caused by MYT1 protein, by ELISA. The kit of CycLex Weel Kinase Assay/Inhibitor Screening Kit Ver. 3 (manufactured by MBL, CY-1172V3) was used. Using Kinase Buffer, 10 μL of 5 nM MYT1 protein (manufactured by Carna Biosciences, Inc.) was prepared. In addition, 30 μL of 83.3 μM of ATP was prepared using Kinase Buffer. In addition, 10 μL of each compound was diluted to each concentration using Kinase Buffer. 30 μL of ATP was added to the plate of the kit, and thereafter, 10 μL of each compound was added thereto. Further, 10 μL of the diluted MYT1 protein solution was added thereto, and then the mixture was mixed, which was allowed to stand at room temperature for 60 minutes. The reaction solution was removed from each well, and each well was washed using Wash Buffer. After Wash Buffer was removed, 100 μL of HRP conjugated Anti-phospho-tyrosine antibody was added to each well, which was allowed to stand at room temperature for 60 minutes. Thereafter, the reaction solution was removed from each well, and each well was washed using Wash Buffer. After Wash Buffer was removed, 100 μL of Substrate Reagent was added to each well, which was allowed to stand at room temperature for 8 minutes. Thereafter, 100 μL of Stop Solution (1 N sulfuric acid) was added to each well according to the manual. Absorbances at 450 nm and 590 nm were measured using Envision (manufactured by PerkinElmer). The phosphorylation level of CDK1 protein was evaluated for each well by subtracting the absorbance at 590 nm from the absorbance at 450 nm. The inhibition rate of each compound added at each concentration was calculated by setting the signal when the compound was not added as 100% and the signal when MYT1 protein was not added as 0%, and the calculation results of IC50 were shown in Table 4.
# T1 sequence (Q99640 whole entry): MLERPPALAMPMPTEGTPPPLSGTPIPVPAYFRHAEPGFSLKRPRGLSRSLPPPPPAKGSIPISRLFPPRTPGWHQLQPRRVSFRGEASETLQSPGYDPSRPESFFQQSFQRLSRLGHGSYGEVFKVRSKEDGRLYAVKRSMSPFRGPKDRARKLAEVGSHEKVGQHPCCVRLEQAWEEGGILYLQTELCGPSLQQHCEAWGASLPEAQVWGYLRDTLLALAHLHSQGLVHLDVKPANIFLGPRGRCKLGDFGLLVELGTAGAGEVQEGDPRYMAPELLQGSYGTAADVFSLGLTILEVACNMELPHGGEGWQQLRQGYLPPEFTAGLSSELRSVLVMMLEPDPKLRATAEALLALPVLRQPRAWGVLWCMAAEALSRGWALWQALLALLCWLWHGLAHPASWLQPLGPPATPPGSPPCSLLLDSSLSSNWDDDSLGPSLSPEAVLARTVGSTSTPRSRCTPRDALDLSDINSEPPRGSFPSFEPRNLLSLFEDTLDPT
SMILES,IC50 [1] [nM],IC50 [3] [nM],Bliss Score (Max) [2] [%],HSA Score (MAX) [2] [%]
"N#C[C@H]1C[C@H](Oc2cc3c(-c4ccc(Cl)c5[nH]ncc45)c(N)c(=O)[nH]c3cc2Cl)C1 [Compound A12, (1r,3r)-3-[[3-Amino-7-chloro-4-(7-chloro-1H-indazol-4-yl)-2-oxo-1H-quinolin-6-yl]oxy]cyclobutane-1-carbonitrile]",2.6,,61,70
"Nc1c(-c2ccc(Cl)c3[nH]ncc23)c2cc(Cl)c(Br)cc2[nH]c1=O [Compound A27, 3-Amino-7-bromo-6-chloro-4-(7-chloro-1H-indazol-4-yl)-1H-quinolin-2-one]",40,0.52,,
"Nc1c(-c2cc(F)cc3[nH]ncc23)c2cc(Cl)ccc2[nH]c1=O [Compound A56, 3-Amino-6-chloro-4-(6-fluoro-1H-indazol-4-yl)-1H-quinolin-2-one]",58,1.1,,
"Cc1ccc(-c2c(N)c(=O)[nH]c3ccc(Cl)cc23)c2cn[nH]c12 [Compound A60, 3-Amino-6-chloro-4-(7-methyl-1H-indazol-4-yl)-1H-quinolin-2-one]",7,0.55,,
"N#Cc1cc2c(-c3ccc(F)c4[nH]ncc34)c(N)c(=O)[nH]c2c2ccccc12 [Compound B26, 3-Amino-4-(7-fluoro-1H-indazol-4-yl)-2-oxo-1H-benzo[h]quinoline-6-carbonitrile]",10,0.37,,
"Cc1cc2c(-c3ccc(F)c4[nH]ncc34)c(N)c(=O)[nH]c2c2ccccc12 [Compound B27, 3-Amino-4-(7-fluoro-1H-indazol-4-yl)-6-methyl-1H-benzo[h]quinolin-2-one]",7.3,0.21,,
"Cc1nc2c(C)cc3c(-c4ccc(F)c5[nH]ncc45)c(N)c(=O)[nH]c3c2s1 [Compound K4, 7-Amino-6-(7-fluoro-1H-indazol-4-yl)-2,4-dimethyl-9H-[1,3]thiazolo[4,5-h]quinolin-8-one]",2.7,,56,66
"Nc1c(-c2ccc(F)c3[nH]ncc23)c2cc(C3CC3)c3ccsc3c2[nH]c1=O [Compound L3, 7-Amino-4-cyclopropyl-6-(7-fluoro-1H-indazol-4-yl)-9H-thieno[3,2-h]quinolin-8-one]",2.3,,51,61
"Nc1c(-c2ccc(F)c3[nH]ncc23)c2cc(C3CC3)c3scnc3c2[nH]c1=O [Compound N2, 7-Amino-4-cyclopropyl-6-(7-fluoro-1H-indazol-4-yl)-9H-[1,3]thiazolo[5,4-h]quinolin-8-one]",3.3,,50,57
"Cc1nc2c(-c3ccc(F)c4[nH]ncc34)c(N)c(=O)[nH]c2c2cccnc12 [Compound O1, 3-Amino-4-(7-fluoro-1H-indazol-4-yl)-6-methyl-1H-pyrido[2,3-h][1,5]naphthyridin-2-one]",1.1,,37,44
"Cc1cc2c(nn1)c(Br)cc1c(-c3ccc(F)c4[nH]ncc34)c(N)c(=O)[nH]c12 [Compound S1, 3-Amino-6-bromo-4-(7-fluoro-1H-indazol-4-yl)-9-methyl-1H-pyrido[2,3-f]cinnolin-2-one]",370,,,
"COc1ccc2c(n1)c(OC)cc1c(-c3ccc(F)c4[nH]ncc34)c(N)c(=O)[nH]c12 [Compound T1, 3-Amino-4-(7-fluoro-1H-indazol-4-yl)-6,8-dimethoxy-1H-1,7-phenanthrolin-2-one]",4.9,,,
"CC(C)Oc1cc2c(-c3ccc(F)c4[nH]ncc34)c(N)c(=O)[nH]c2c2ccc(=O)[nH]c12 [Compound T5, 3-Amino-4-(7-fluoro-1H-indazol-4-yl)-6-propan-2-yloxy-1,7-dihydro-1,7-phenanthroline-2,8-dione]",3.5,,,

# The next lines start with results.
IC50 [1] [nM],IC50 [3] [nM],SMILES,Bliss Score (Max) [2] [%],HSA Score (MAX) [2] [%]
43,0.71,"Nc1c(-c2ccc(Cl)c3[nH]ncc23)c2cc(Cl)c(OC(F)F)cc2[nH]c1=O [Compound A30, 3-Amino-6-chloro-4-(7-chloro-1H-indazol-4-yl)-7-(difluoromethoxy)-1H-quinolin-2-one]",,
13,0.61,"Nc1c(-c2ccc(F)c3[nH]ncc23)c2cc(Cl)ccc2[nH]c1=O [Compound A57, 3-Amino-6-chloro-4-(7-fluoro-1H-indazol-4-yl)-1H-quinolin-2-one]",,
140,5,"Nc1c(-c2ccc(C(F)(F)F)c3[nH]ncc23)c2cc(Cl)ccc2[nH]c1=O [Compound A61, 3-Amino-6-chloro-4-[7-(trifluoromethyl)-1H-indazol-4-yl]-1H-quinolin-2-one]",,
22,4,"Nc1c(-c2cccc(O)c2)c2ccc3ccccc3c2[nH]c1=O [Compound B2, 3-Amino-4-(3-hydroxyphenyl)-1H-benzo[h]quinolin-2-one]",,
6,5.7,"N#Cc1cc2c(-c3cccc(O)c3)c(N)c(=O)[nH]c2c2ccccc12 [Compound B7, 3-Amino-4-(3-hydroxyphenyl)-2-oxo-1H-benzo[h]quinoline-6-carbonitrile]",,
19,0.32,"CP(C)(=O)c1cc2c(-c3ccc(F)c4[nH]ncc34)c(N)c(=O)[nH]c2c2ccccc12 [Compound B31, 3-Amino-6-dimethylphosphoryl-4-(7-fluoro-1H-indazol-4-yl)-1H-benzo[h]quinolin-2-one]",,
1.6,,"COc1cc2c(-c3ccc(F)c4[nH]ncc34)c(N)c(=O)[nH]c2c2cc(F)cnc12 [Compound F2, 3-Amino-9-fluoro-4-(7-fluoro-1H-indazol-4-yl)-6-methoxy-1H-1,7-phenanthrolin-2-one]",86,83
2.7,,"Nc1c(-c2ccc(F)c3[nH]ncc23)c2cc(C3CC3)c3cnsc3c2[nH]c1=O [Compound H3, 7-Amino-4-cyclopropyl-6-(7-fluoro-1H-indazol-4-yl)-9H-[1,2]thiazolo[4,5-h]quinolin-8-one]",61,61
19,,"Cn1cnc2c3[nH]c(=O)c(N)c(-c4ccc(F)c5[nH]ncc45)c3cc(C3CC3)c21 [Compound M4, 7-Amino-4-cyclopropyl-6-(7-fluoro-1H-indazol-4-yl)-3-methyl-9H-imidazo[4,5-h]quinolin-8-one]",51,60
7.6,,"COc1ccc2c(n1)c(OC(C)C)cc1c(-c3ccc(F)c4[nH]ncc34)c(N)c(=O)[nH]c12 [Compound T2, 3-Amino-4-(7-fluoro-1H-indazol-4-yl)-8-methoxy-6-propan-2-yloxy-1H-1,7-phenanthrolin-2-one]",,
6.1,,"CCOc1cc2c(-c3ccc(F)c4[nH]ncc34)c(N)c(=O)[nH]c2c2ccc(OC)nc12 [Compound T3, 3-Amino-6-ethoxy-4-(7-fluoro-1H-indazol-4-yl)-8-methoxy-1H-1,7-phenanthrolin-2-one]",,
3.2,,"COc1cc2c(-c3ccc(F)c4[nH]ncc34)c(N)c(=O)[nH]c2c2ccc(=O)[nH]c12 [Compound T4, 3-Amino-4-(7-fluoro-1H-indazol-4-yl)-6-methoxy-1,7-dihydro-1,7-phenanthroline-2,8-dione]",,
2.2,,"CCOc1cc2c(-c3ccc(F)c4[nH]ncc34)c(N)c(=O)[nH]c2c2ccc(=O)[nH]c12 [Compound T6, 3-Amino-6-ethoxy-4-(7-fluoro-1H-indazol-4-yl)-1,7-dihydro-1,7-phenanthroline-2,8-dione]",,
